The data set is described as follows: Blood concentration in mice after oral administration (reversed-phase HPLC). The class given is in vivo, Mäusen. The conditions noted are these: oral gavage. The protocol:
Die zu untersuchenden Verbindungen der Formel I oder als Kontrolle die Vergleichsverbindung der Formel II werden in Dimethylsulfoxid (DMSO) in einer Konzentration von 240 mg/ml gelöst. Die resultierenden Lösungen werden mit 20% (w/v) Hydroxypropyl-β-cyclodextrin (HPβCD) verdünnt, um eine Konzentration der Testsubstanz von 12 mg/ml zu erhalten. Diese Lösung wird Mäusen durch künstliche Sonderernährung in einer Dosis von 120 mg/kg verabreicht. 30, 60, 90 und 120 min nach der Verabreichung werden die Tiere getötet und Blut entnommen. Pro Zeitpunkt werden drei bis vier Tiere untersucht. Das Blut wird heparinisiert und für die Analyse durch eine der folgenden beiden Methoden vorbereitet: Nach der ersten Methode wird Vollblut deproteinisiert durch Mischen eines Volumenteils Blut mit einem Volumenteil Acetonitril; nach Zentrifugation wird der Überstand durch Reversed-Phase-HPLC untersucht. Nach der zweiten Methode wird ein interner Standard zum heparinisierten Blut in einer Endkonzentration von 4 µM zugegeben. Das Blut wird zentrifugiert. 0,25 ml Plasma werden abgenommen und mit einem gleichen Volumen Acetonitril deproteinisiert. Nach Zentrifugation wird der Überstand unter Vakuum eingetrocknet und der Rückstand in 20 µl 3M NaCl-Lösung und 100 µl 0,05M Phthalat-Puffer mit einem pH von 3,0 suspendiert. Die Suspension wird erst mit 1 ml, dann mit 0,2 ml Diisopropylether extrahiert. […]

For `CC(=O)O[C@H](CN1C[C@H]2CCCC[C@H]2C[C@H]1C(=O)NC(C)(C)C)[C@H](Cc1ccccc1)NC(=O)[C@H](CC(N)=O)NC(=O)c1ccc2ccccc2n1` [N-tert.-Butyl-decahydro-2-[2(R)-acetyloxy-4-phenyl-3(S)-[[N-(2-chinolylcarbonyl)-L-asparaginyl]amino]butyl]-(4aS,8aS)-isochinolin-3(S)-carboxamid], under “120 mg/kg, 30, 60, 90 and 120 min after dosing, compared with administration of the compound of formula II in unesterified form”, the “Konzentration der aktiven Komponente der Formel II im Blut” value is given as “mehr als dreimal so hoch”. In addition, under “120 mg/kg, compared with absorption of the compound of formula II”, the “Absorption der Verbindung der Formel I” value was “mehr als viermal so hoch”.

These data come from patent EP0594540B1, “Antiretroviral acyl compounds” (Novartis AG, priority 1992, dated 1994).
